Patent EP4473972A1, “COMBINATIONS COMPRISING AN ATR INHIBITOR WITH SYNERGISTIC EFFECT AGAINST GLIOMAS” (Eberhard-Karls-Universität Tübingen, priority 2023, dated 2024)

Key:
LN229 and LNZ308 cells = experiment: DigiWest Multiplex Protein Analysis, across both cell lines; type: cell-based, human; conditions: 72 h
Method: After 72 h of AZD6738 treatment, the inventors detached and counted the cells and subsequently snap froze them in liquid nitrogen. For protein preparation, they kept the cells on ice and added 20-30 µL of lysis buffer (LDS Lysis Buffer (Life Technologies, Carlsbad, CA, USA), supplemented with reducing agent (Thermo Fisher Scientific, Waltham, MA, USA) and protease- (Roche Diagnostics GmbH, Mannheim, Germany) and phosphatase-inhibitor (Roche)). Proteins were denatured by heating to 95°C for 10 min before the lysates were transferred to QiaShredder Eppendorf tubes (Eppendorf, Hamburg, Germany). After centrifugation (16,000g, 5 min, RT), eluates were stored at -80°C until further use. Protein quantification was performed using in-gel staining. 1 µL of each original lysate was diluted 1:10 (v/v) in lysis buffer. The respective aliquots were denatured for 10 mins at 70°C and 10 µL were run in a NuPAGE 4-12% Bis-Tris precast gel (Thermo Fisher Scientific) according to the manufacturer's instructions. The gel was washed with water and proteins were stained with BlueBandit (VWR, Darmstadt, Germany) for 1 h. The gel was de-stained over night with ddH2O before detection on a LI-COR (LI-COR, Bad Homburg, Germany) instrument. Analysis and protein quantification was performed using ImageStudio.
The DigiWest analysis was performed as described in the art. In brief, the inventors loaded 10 µg of cellular protein on an SDS-polyacrylamide gel and size-separated them using the commercial NuPAGE system (Life Technologies). Size-separated proteins were blotted onto a PVDF membrane and biotinylated on the membrane using NHS-PEG12-Biotin (50 µM) in PBST for 1 h. After drying of the membrane, the samples lanes were cut into 96 strips of 0.5 mm width using an automated cutting plotter (Silhouette America, West Orem, UT, USA) each corresponding to a defined molecular weight fraction. Each of the strips was placed in one well of a 96-well plate and 10 µl elution buffer (8 M urea, 1% Triton-X100 in 100 mM Tris-HCl pH 9.5) was added. The eluted proteins were diluted with 90 µl of dilution buffer (5% BSA in PBS, 0.02% sodium azide, 0.05% Tween-20) and each of the protein fractions was incubated with 1 distinct magnetic color-coded bead population (Luminex, Austin, USA) coated with neutravidin. The biotinylated proteins bind to the neutravidin beads such that each bead color represents proteins of one specific molecular weight fraction. All 96 protein loaded bead populations were mixed resulting in reconstitution of the original lane. […] Beads were washed twice prior to readout on a Luminex FlexMAP 3D.
For quantification of the antibody specific signals, we used the DigiWest Analyzer software; it automatically identifies peaks of appropriate molecular weight and calculates the peak area. […]

[1] = after continuous dosing; cited from earlier work

Which results are given for `C[C@@H]1COCCN1c1cc(C2([S@](C)(=N)=O)CC2)nc(-c2cc[nH]c3nccc2-3)n1` [AZD6738, ceralasertib]?
NF-κB (LN229 and LNZ308 cells; across both cell lines): significant upregulation; markers for ATR target engagement such as pATR, Chk2, and Ku80 (LN229 and LNZ308 cells; across both cell lines): significant reduction; Cleaved PARP (LN229 and LNZ308 cells; both cell lines): upregulated; pH2A.X (LN229 and LNZ308 cells; both cell lines): Upregulation; adverse events [1]: bone marrow suppression
